This assay concerns the target T1, Chemerin-like receptor 1 (Homo sapiens, UniProt Q99788).
T1 sequence (Q99788 whole entry): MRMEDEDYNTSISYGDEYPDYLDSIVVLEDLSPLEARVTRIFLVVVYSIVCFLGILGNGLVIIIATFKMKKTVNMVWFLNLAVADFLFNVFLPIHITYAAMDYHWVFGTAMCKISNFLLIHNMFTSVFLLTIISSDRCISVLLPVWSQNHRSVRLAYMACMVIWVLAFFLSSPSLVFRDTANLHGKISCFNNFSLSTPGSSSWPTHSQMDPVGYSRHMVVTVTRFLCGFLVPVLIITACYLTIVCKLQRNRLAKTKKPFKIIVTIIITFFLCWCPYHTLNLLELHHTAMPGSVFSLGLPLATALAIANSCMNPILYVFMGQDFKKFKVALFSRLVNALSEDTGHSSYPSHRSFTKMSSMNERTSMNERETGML
Nature of the assay: Displacement of [125I]-chemerin from ChemR23 (unknown origin) transfected in mouse BaF3 cells after 3 hrs by scintillation counting method. It counts as cell-based. For orientation: Loss of bound radioactivity is the signal in a displacement assay; it reports binding, not function.
As for `CC[C@@]1(C(=O)Nc2cc(C#N)cc(C(F)(F)F)c2)CN(c2c(C)cccc2C)C(=O)[C@H]1C`, the IC50 (as a rule, the concentration at which inhibition is half-maximal) is at most 0.03 µM.
The same measure for `CCC1(C(=O)Nc2cccc(C(F)(F)F)c2)CC(=O)N(c2c(C)cccc2C)C1` (stereo not drawn): 0.3 to 6 µM; for `Cc1cccc(C)c1N1CC(CN(C)C)(C(=O)Nc2cc(C(F)(F)F)cc(C(F)(F)F)c2)CC1=O` (stereo not drawn): 0.03 to 0.3 µM; for `Cc1ccccc1N1CC(C(=O)Nc2cc(C(F)(F)F)cc(C(F)(F)F)c2)CC1=O` (stereo not drawn): 0.03 to 0.3 µM.
The same measure for `COCc1cccc(C)c1N1C[C@](C(=O)Nc2cc(C(F)(F)F)cc(C(F)(F)F)c2)(C(C)C)CC1=O`: 0.03 to 0.3 µM; for `Cc1cccc(C)c1N1C[C@@](CN(C)CC(C)C)(C(=O)Nc2cc(C3CC3)cc(C(F)(F)F)c2)[C@H](C)C1=O`: 0.03 to 0.3 µM; for `Cc1cccc(C)c1N1C[C@@](C(=O)Nc2cc(C(F)(F)F)cc(C(F)(F)F)c2)(C(C)C)[C@H](C)C1=O`: at most 0.03 µM.
The compound `Cc1cccc(C)c1N1C[C@@](CN(C)C)(C(=O)Nc2cc(C#N)cc(C(F)(F)F)c2)[C@H](C)C1=O` yielded an IC50 of at most 0.03 µM.
Consider `Cc1cccc(C)c1N1C[C@@](CN2CCC(F)(F)C2)(C(=O)Nc2cc(C(F)(F)F)cc(C(F)(F)F)c2)[C@H](C)C1=O`, for which the IC50 fell in the range of 0.03 to 0.3 µM.
The same measure for `CC(C)C1(C(=O)Nc2cc(C(F)(F)F)cc(C(F)(F)F)c2)CC(=O)N(c2ccccc2C2CC2)C1` (stereo not drawn): 0.03 to 0.3 µM; for `COc1cccc(C)c1N1CC(C(=O)Nc2cc(C(F)(F)F)cc(C(F)(F)F)c2)(C(C)C)CC1=O` (stereo not drawn): 0.3 to 6 µM.
The compound `Cc1cccc(C)c1N1CC2(C(=O)Nc3cc(C(F)(F)F)cc(C(F)(F)F)c3)COCC2C1=O` (stereo not drawn) returned an IC50 of 0.03 to 0.3 µM.
Compound `Cc1cccc(C)c1N1C[C@@](CN(CCF)CCF)(C(=O)Nc2cc(C(F)(F)F)cc(C(F)(F)F)c2)[C@H](C)C1=O` had an IC50 of at most 0.03 µM.
The same measure for `Cc1cccc(C)c1N1CC(C(=O)Nc2cc(Br)cc(C(F)(F)F)c2)(C(C)C)CC1=O` (stereo not drawn): at most 0.03 µM; for `Cc1cccc(C)c1N1C[C@@](CN(C)C)(C(=O)Nc2cc(C(F)(F)F)cc(C(F)(F)F)c2)[C@H](C)C1=O`: at most 0.03 µM.
The same measure for `Cc1cccc(C)c1N1CC(C(=O)Nc2cc(Cl)cc(C#N)c2)CC1=O` (stereo not drawn): 0.3 to 6 µM.
Regarding `Cc1cccc(C)c1N1CC2(C(=O)Nc3cc(C(F)(F)F)cc(C(F)(F)F)c3)CC2C1=O` (stereo not drawn), the IC50 fell in the range of 0.3 to 6 µM.
Consider `C=Cc1ccccc1N1CC(C(=O)Nc2cc(C(F)(F)F)cc(C(F)(F)F)c2)(C(C)C)CC1=O` (stereo not drawn), for which the 50% inhibitory concentration (IC50) fell in the range of 0.03 to 0.3 µM.
Compound `Cc1cccc(C)c1N1C[C@@](CN2CCCCC2)(C(=O)Nc2cc(C#N)cc(C(F)(F)F)c2)[C@H](C)C1=O` displayed an IC50 of at most 0.03 µM.
On to `Cc1cccc(C)c1N1C[C@@](CN(C)CCF)(C(=O)Nc2cc(C(F)(F)F)cc(C(F)(F)F)c2)[C@H](C)C1=O`, for which the IC50 is at most 0.03 µM.
Compound `CC[C@@]1(C(=O)Nc2cc(N3CCCC3)cc(C(F)(F)F)c2)CN(c2c(C)cccc2C)C(=O)[C@H]1C` displayed an IC50 of 0.03 to 0.3 µM.
Compound `Cc1cccc(C)c1N1C[C@@](CN2CCC2)(C(=O)Nc2cc(C(F)(F)F)cc(C(F)(F)F)c2)[C@H](C)C1=O` showed an IC50 of 0.03 to 0.3 µM.
For `CCCCC1(C(=O)Nc2cc(C(F)(F)F)cc(C(F)(F)F)c2)CC(=O)N(c2c(C)cccc2C)C1` (stereo not drawn), the IC50 was at most 0.03 µM.

The values above are taken from ChEMBL document CHEMBL3879908, “Pyrrolidinone carboxamide derivatives” (2014).
